From ChEMBL document CHEMBL5053545, “Iterative Structure-Based Optimization of Short Peptides Targeting the Bacterial Sliding Clamp” (J Med Chem, 2021)
*1 amine or outer side, *2 acyl side, *3 side chain or, on linkers, in order; H or OH if unused. Where a SMILES comes first, the peptide text is derived from it. [ ]: non-standard residue; d: D form. The star is where a group is joined. N(3-imidazol-1-ylpropyl)Gly = O=C(O)CNCCCn1ccnc1; NEtAsp = CCN([C@@H](CC(=O)[*:3])C(=O)[*:2])[*:1]; Gly(N-3-morpholinopropyl) = O=C(O)CNCCCN1CCOCC1; Phe(3,4-Cl2) = N[C@@H](Cc1ccc(Cl)c(Cl)c1)C(=O)O; Phe(3,4-F2) = N[C@@H](Cc1ccc(F)c(F)c1)C(=O)O; Caffeoyl = O=C(/C=C/c1ccc(O)c(O)c1)*; NMeCha = CN[C@@H](CC1CCCCC1)C(=O)O; NMeR = CN[C@@H](CCCNC(=N)N)C(=O)O; NMeQ = CN[C@@H](CCC(N)=O)C(=O)O; Cha = N[C@@H](CC1CCCCC1)C(=O)O; NMeD = CN[C@@H](CC(=O)O)C(=O)O; NMeL = CN[C@@H](CC(C)C)C(=O)O

Key:
[1] = Binding affinity to Escherichia coli sliding clamp assessed as dissociation constant by ITC analysis
Escherichia coli [2] = experiment: Binding affinity to Escherichia coli sliding clamp assessed as gibbs free energy change by ITC analysis
Escherichia coli [3] = experiment: Binding affinity to Escherichia coli sliding clamp assessed as association rate constant by ITC analysis
Escherichia coli [4] = experiment: Binding affinity to Escherichia coli sliding clamp assessed as dissociation rate constant by ITC analysis

Row | Structure (SMILES) | Kd [1] | deltaG (Escherichia coli [2]) | K (Escherichia coli [3]) | K (Escherichia coli [4])
1 | CC(=O)N[C@@H](CCC(N)=O)C(=O)N[C@@H](CC1CCCCC1)C(=O)N[C@@H](CC(=O)O)C(=O)N(C)[C@@H](CC(C)C)C(=O)N[C@@H](Cc1ccccc1)C(=O)O (Ac-Q[Cha]D[NMeL]F-OH) | > 1000 nM | -5.2 kcal/mol |  | 
2 | CCN(C(=O)[C@H](CC1CCCCC1)NC(=O)[C@H](CCC(N)=O)NC(C)=O)[C@@H](CC(=O)O)C(=O)N[C@@H](CC(C)C)C(=O)N[C@@H](Cc1ccccc1)C(=O)O (Ac-Q[Cha][NEtAsp]LF-OH) | 523 nM | -8.6 kcal/mol | 2.9 10^4/M/s | 1.3 10^-2/s
3 | CC(=O)N[C@@H](CCC(N)=O)C(=O)N[C@@H](CC1CCCCC1)C(=O)N(C)[C@@H](CC(=O)O)C(=O)N[C@@H](CC(C)C)C(=O)N[C@@H](Cc1ccccc1)C(=O)O (Ac-Q[Cha][NMeD]LF-OH) | 114 nM | -9.5 kcal/mol | 2.1 10^4/M/s | 1.9 10^-2/s
4 | CC(=O)N[C@@H](CCC(N)=O)C(=O)N[C@@H](CC1CCCCC1)C(=O)N(C)[C@@H](CC(=O)O)C(=O)N[C@@H](CC(C)C)C(=O)N1CCC[C@H]1C(=O)N[C@@H](CC(C)C)C(=O)O (Ac-Q[Cha][NMeD]LPL-OH) | 263 nM | -9 kcal/mol | 1 10^5/M/s | 2.3 10^-2/s
5 | CC(=O)N[C@@H](CCC(N)=O)C(=O)N[C@@H](CC1CCCCC1)C(=O)N(C)[C@@H](CC(=O)O)C(=O)N[C@@H](CC(C)C)C(=O)N1CCC[C@H]1C(=O)N[C@@H](Cc1ccc(Cl)c(Cl)c1)C(=O)O (Ac-Q[Cha][NMeD]LP[Phe(3,4-Cl2)]-OH) | 231 nM | -9.1 kcal/mol | 3.8 10^4/M/s | 7.9 10^-3/s
6 | CC(=O)N[C@@H](CCC(N)=O)C(=O)N[C@@H](CC1CCCCC1)C(=O)N(C)[C@@H](CC(=O)O)C(=O)N[C@@H](CC(C)C)C(=O)N[C@@H](Cc1ccc(Cl)c(Cl)c1)C(=O)O (Ac-Q[Cha][NMeD]L[Phe(3,4-Cl2)]-OH) | 41 nM | -10.1 kcal/mol | 2.7 10^5/M/s | 1 10^-2/s
7 | CC(=O)N[C@@H](CCC(N)=O)C(=O)N[C@@H](CC1CCCCC1)C(=O)N(C)[C@@H](CC(=O)O)C(=O)N[C@@H](CC(C)C)C(=O)N[C@@H](Cc1ccc(F)c(F)c1)C(=O)O (Ac-Q[Cha][NMeD]L[Phe(3,4-F2)]-OH) | 148 nM | -9.3 kcal/mol | 5.6 10^4/M/s | 8.4 10^-3/s
8 | CC(=O)N[C@@H](CCC(N)=O)C(=O)N(C)[C@@H](CC1CCCCC1)C(=O)N[C@@H](CC(=O)O)C(=O)N[C@@H](CC(C)C)C(=O)N[C@@H](Cc1ccccc1)C(=O)O (Ac-Q[NMeCha]DLF-OH) | > 1000 nM | -6 kcal/mol |  | 
9 | CC(=O)N[C@@H](CCCNC(=N)N)C(=O)N[C@@H](CCC(N)=O)C(=O)N[C@@H](CC1CCCCC1)C(=O)N[C@@H](CC(=O)O)C(=O)N[C@@H](CC(C)C)C(=O)N[C@@H](Cc1ccccc1)C(=O)O (Ac-RQ[Cha]DLF-OH) | 498 nM | -8.6 kcal/mol | 3.7 10^4/M/s | 1.9 10^-2/s
10 | CC(=O)N[C@@H](CCCNC(=N)N)C(=O)N[C@@H](CCC(N)=O)C(=O)N[C@@H](CC1CCCCC1)C(=O)N(C)[C@@H](CC(=O)O)C(=O)N[C@@H](CC(C)C)C(=O)N[C@@H](Cc1ccc(Cl)c(Cl)c1)C(=O)O (Ac-RQ[Cha][NMeD]L[Phe(3,4-Cl2)]-OH) | 278 nM | -8.9 kcal/mol | 7.6 10^4/M/s | 2.1 10^-2/s
11 | CC(=O)N(C)[C@@H](CCC(N)=O)C(=O)N[C@@H](CC1CCCCC1)C(=O)N[C@@H](CC(=O)O)C(=O)N[C@@H](CC(C)C)C(=O)N[C@@H](Cc1ccccc1)C(=O)O (Ac-[NMeQ][Cha]DLF-OH) | > 1000 nM | -7.7 kcal/mol | 2.1 10^4/M/s | 4.6 10^-2/s
12 | CC(=O)N(C)[C@@H](CCCNC(=N)N)C(=O)N[C@@H](CCC(N)=O)C(=O)N[C@@H](CC1CCCCC1)C(=O)N[C@@H](CC(=O)O)C(=O)N[C@@H](CC(C)C)C(=O)N[C@@H](Cc1ccccc1)C(=O)O (Ac-[NMeR]Q[Cha]DLF-OH) | 2130 nM | -7.7 kcal/mol | 2.1 10^4/M/s | 2.9 10^-2/s
13 | CC(=O)N(C)[C@@H](CCCNC(=N)N)C(=O)N[C@@H](CCC(N)=O)C(=O)N[C@@H](CC1CCCCC1)C(=O)N(C)[C@@H](CC(=O)O)C(=O)N[C@@H](CC(C)C)C(=O)N[C@@H](Cc1ccc(Cl)c(Cl)c1)C(=O)O (Ac-[NMeR]Q[Cha][NMeD]L[Phe(3,4-Cl2)]-OH) | 92 nM | -9.6 kcal/mol | 1.1 10^5/M/s | 9.4 10^-3/s
14 | CC(C)C[C@H](NC(=O)[C@H](CC(=O)O)NC(=O)[C@H](CC1CCCCC1)NC(=O)[C@H](CCC(N)=O)NC(=O)/C=C/c1ccc(O)c(O)c1)C(=O)N[C@@H](Cc1ccccc1)C(=O)O (Caffeoyl-Q[Cha]DLF-OH) | 99 nM | -9.5 kcal/mol | 4.6 10^4/M/s | 4.7 10^-3/s
15 | CC(C)C[C@H](NC(=O)[C@H](CC(=O)O)NC(=O)[C@H](CC1CCCCC1)NC(=O)[C@H](CCC(N)=O)NC(=O)CNCCCN1CCOCC1)C(=O)N[C@@H](Cc1ccccc1)C(=O)O (H-[Gly(N-3-morpholinopropyl)]Q[Cha]DLF-OH) | 796 nM | -8.3 kcal/mol | 1.8 10^4/M/s | 1.4 10^-2/s
16 | CC(C)C[C@H](NC(=O)[C@H](CC(=O)O)NC(=O)[C@H](CC1CCCCC1)NC(=O)[C@H](CCC(N)=O)NC(=O)CNCCCn1ccnc1)C(=O)N[C@@H](Cc1ccccc1)C(=O)O (H-[N(3-imidazol-1-ylpropyl)Gly]Q[Cha]DLF-OH) | 312 nM | -8.9 kcal/mol | 4.2 10^4/M/s | 1.1 10^-2/s
